Test results published in patent US20100010082A1, “FORMULATIONS FOR TREATING EYE DISORDERS” (Aspreva International Ltd., priority 2008, published 2010).
Like-named read-outs stand apart in the source and are kept apart here. Marks after values point to notes of the source that are not given here.

Key:
[1] = CellCept® label / Myfortic® label; cited from earlier work
[2] = tested on: Con-A-induced dry eye in NZW rabbits; experiment: Con A induced dry eye model, Tear Break-up Test (TBUT); format: in vivo, Oryctolagus cuniculus
[3] = tested on: Bovine Ocular Melanin Induced Uveitis in Lewis Rats
[4] = tested on: Scopolamine Induced Dry Eye in C57BL/6 Mice; experiment: Scopolamine induced dry eye model; format: in vivo, Mus musculus; conditions: by the end of the study (Day 13)
Description: This dry eye model was based on that described in De Paiva et al., 2006, Investigative Opthalmology & Visual Science 47(7):2847-2856, incorporated herein by reference. The study consisted of seven groups of 10 female C57BL/6 mice each. Starting on Day 0, mice of Groups 1-6 were treated four times-daily (QID) with topical bilateral ocular (OU) administration of control or test articles at intervals of at least two hours. […] Mice in Group 7 served as untreated controls. On Day 3, scopolamine patches were placed on the tails of the mice and replaced every other day (Q2D) thereafter. From Days 3-12, mice were maintained in an environment with high-volume air draft (see Environmental stress section, below). […]
For each day of administration, mice were briefly restrained. […] Following patch application, animals were monitored for any adverse reactions, including the condition of the tail and Vetwrap®. […]
Slit Lamp Corneal Examinations. Both eyes of each animal were evaluated via a slit lamp ophthalmic examination using topically-applied fluorescein. Fluorescein dye was used to examine the surface of the cornea and scored.
Pathology. […] A board-certified veterinary pathologist evaluated slides via light microscopy. […]
Eyes were serially sectioned and examined. The representative corneas were scored based upon a 0-4 scale, with 0 being normal, 1 being minimal, 2 being mild, 3 being moderate, and 4 being severe. […]

[5] = Days 17/18, pooled average (+/−SEM) of both eyes
[6] = Days 19/20, pooled average (+/−SEM) of both eyes
[7] = Days 26/27, pooled average (+/−SEM) of both eyes
[8] = Days 28/29, pooled average (+/−SEM) of both eyes
[9] = Days −2/−1 (before immunization and dosing)

COc1c(C)c2c(c(O)c1C/C=C(\C)CCC(=O)OCCN1CCOCC1)C(=O)OC2 [MMF, mycophenolate mofetil]
solubility (in words) [1]: only slightly soluble in water

COc1c(C)c2c(c(O)c1C/C=C(\C)CCC(=O)[O-])C(=O)OC2.[Na+] [NaMPA, sodium mycophenolic acid]
solubility (in words) [1]: highly soluble in aqueous solutions at physiological pH

C[C@@H]1C[C@H]2[C@@H]3CCC4=CC(=O)C=C[C@]4(C)[C@@]3(F)[C@@H](O)C[C@]2(C)[C@@]1(O)C(=O)CO [dexamethasone]
TBUT, post-hoc Tukey P vs. Vehicle ([2]; D6 (before Con A injection on Day 8)): <0.01
TBUT, post-hoc Tukey P vs. Vehicle ([2]; D9): <0.05
TBUT, post-hoc Tukey P vs. Vehicle ([2]; D10): <0.01
TBUT, post-hoc Tukey P vs. Vehicle ([2]; D14): <0.001
TBUT, post-hoc Tukey P vs. Vehicle ([2]; D15): <0.01
TBUT, post-hoc Tukey P vs. Vehicle ([2]; D16): <0.001
TBUT, post-hoc Tukey P vs. Vehicle ([2]; D17): <0.001
Hyperemia Scores (pooled) ([3]; Days 14/15, pooled average (+/−SEM) of both eyes): 2.0 ±
Hyperemia Scores (pooled) [3, 5]: 2.2 ±
Opacity Scores (pooled) [3, 5]: 1.1 ±
Hyperemia Scores (pooled) [3, 6]: 3.0 ± 0.0
Opacity Scores (pooled) [3, 6]: 2.0 ± 0.0
Hyperemia Scores (pooled) [3, 7]: 1.5 ± 0.5
Opacity Scores (pooled) [3, 7]: 1.3 ± 0.5
Hyperemia Scores (pooled) [3, 8]: 0.0*
Opacity Scores (pooled) [3, 8]: 0.0*
Hyperemia Scores (pooled) [3, 9]: 0
Opacity Scores (pooled) [3, 9]: 0
weight loss during study ([3]; rat, in vivo): significant drug-related weight loss
weight loss relative to other groups [4]: approx. 20%
